According to US20250129119A1, “PEPTIDE HAVING ANTI-INFLAMMATORY ACTIVITY AND USE THEREOF” (CAREGEN CO., LTD., priority 2021, published 2025):

Tests used:
Assay type in all cases: cell-based
[1] = tested on: TNF-α, COX2, IL-6 and IL-8 mRNA expression in human keratinocytes HaCaT; experiment: RT-PCR of inflammatory gene mRNA in HaCaT keratinocytes stimulated with TNF-α and hIL-17A; settings: peptide 5 μM and 50 μM, TNF-α 10 nM and hIL-17A 200 ng/mL, one hour, FIG. 6
Experimental: In order to confirm the effect of the peptides of the present invention synthesized in Synthesis Example 1 on Th17-mediated inflammatory responses, the mRNA expression levels of TNF-α, COX2, IL-6, and IL-8 were measured by RT-PCR.
(§1) Specifically, the number of human keratinocytes HaCaT (CLS Cell Lines Service)) was measured, and the cells were inoculated into a 24-well plate at a density of 3×10^5 cells/well, and cultured overnight. Next day, the medium was replaced with serum-free medium and the cells were cultured for 4 hours, and then treated with the peptide of the present invention (5 μM and 50 μM) and TNF-α (10 nM) and hIL-17A (200 ng/mL), which are Th17 type inflammation-inducing cytokines, used as a stimulant, and cultured for one additional hour.
Next, cells were recovered after culture, and total RNA was extracted using an RNA extraction kit (Qiagen RNeasy kit), and after RNA quantification, cDNA was synthesized using a cDNA synthesis kit (Intron, Korea). A polymerase chain reaction (PCR) was performed by mixing a PCR premix (Intron, Korea), synthesized cDNA, and primers shown in [Table 3] below specific for each of the genes of TNF-α, COX2, IL-6, IL-8, and GAPDH. PCR products were electrophoresed on a 5% agarose gel and stained with ethidium bromide to confirm the mRNA expression levels of TNF-α, COX2, IL-6, and IL-8, which are genes associated with inflammation and autoimmune diseases.

[2] = tested on: secretion of TNF-α, IL-1β and INFγ induced by TNF-α in splenocytes; experiment: ELISA of cytokine secretion in TNF-α-stimulated splenocytes; settings: mouse splenocytes, peptide 5 μM and 50 μM, TNF-α 20 nM, 24 hours
Experimental: In order to confirm the effect of the peptides of the present invention synthesized in Synthesis Example 1 on the inflammatory response induced by TNF-α, the secretion amounts of TNF-α, IL-1β, and INFγ, which are inflammatory cytokines, were measured by ELISA.
(§2) Specifically, 6-7 week old mice (C57BL/6, Young Bio Co., Ltd.) were sacrificed to obtain spleens, which were crushed using a cell strainer, and then centrifuged with serum-free RPMI-1640 medium. The supernatant was discarded and red blood cells (RBCs) were removed twice using RBC lysis buffer. Then, after washing the resultant with serum-free RPMI-1640 medium, an appropriate amount of serum-free RPMI-1640 medium was added thereto. The number of mouse splenocytes was measured, and the cells were inoculated into a 24-well plate at a density of 1×10^7 cells/well, and cultured overnight. Next day, the medium was replaced with serum-free medium and the cells were cultured for 4 hours, and then treated with the peptide of the present invention (5 μM and 50 μM) and TNF-α (20 nM), which is an inflammation-inducing substance, as a stimulant, and cultured for 24 additional hours.
Next, the cell culture was recovered after cultivation, and the amounts of secretion of TNF-α, IL-1β, and INFγ, which are inflammatory cytokines, were measured using an ELISA kit (Quantikine ELISA Kit, R&D System, USA) specific to TNF-α, IL-1β, and INFγ, and the absorbance was measured using Spectramax M2 (Molecular Devices).

[3] = tested on: iNOS and pJNK in human keratinocytes HaCaT; experiment: Western blot of iNOS and pJNK in HaCaT keratinocytes stimulated with TNF-α and hIL-17A; settings: peptide 5 μM and 50 μM, TNF-α 10 nM and hIL-17A 200 ng/mL, 24 hours, FIG. 7
Experimental: In order to confirm the effect of the peptides of the present invention synthesized in Synthesis Example 1 on Th17-mediated inflammatory responses, the degree of phosphorylation of iNOS and pJNK, which are inflammation-inducing factors and signaling proteins, was measured by Western blot.
as §1, with “[…]” for “3×10^5”, “cytokines,” for “cytokines, used”, “24” for “one”, “hours.” for “hour.”
After cultivation, the cells were recovered to prepare a cell lysate, and a western blot was performed using antibodies against iNOS and pJNK (Cell Signaling Technology, USA) to confirm the patterns of protein expression.

[4] = tested on: COX2 and INFγ mRNA expression induced by LPS in splenocytes; experiment: RT-PCR of inflammatory gene mRNA in LPS-stimulated splenocytes; settings: mouse splenocytes; peptide 5 μM and 50 μM; LPS 2 μg/mL; 3 hours; FIG. 1
Experimental: In order to confirm the effect of the peptides of the present invention synthesized in Synthesis Example 1 on the inflammatory response induced by LPS, the expression levels of mRNA of inflammatory cytokines COX2 and INFγ were measured by RT-PCR.
as §2, with “centrifuged along” for “centrifuged”, “was added.” for “was added thereto.”, “and LPS (2 μg/mL),” for “and TNF-α (20 nM),”, “for 3” for “for 24”
Next, cells were recovered after culture, and total RNA was extracted using an RNA extraction kit (Qiagen RNeasy kit), and after RNA quantification, cDNA was synthesized using a cDNA synthesis kit (Intron, Korea). […]

[5] = tested on: secretion of TNF-α, IFN-γ and IL-17 induced by LPS in splenocytes; experiment: ELISA of cytokine secretion in LPS-stimulated splenocytes; settings: mouse splenocytes, peptide 5 μM and 50 μM, LPS 2 μg/mL, 24 hours
Experimental: In order to confirm the effect of the peptides of the present invention synthesized in Synthesis Example 1 on the inflammatory response induced by LPS, the secretion amounts of inflammatory cytokines TNF-α, IL-17, and INFγ were measured by ELISA.
as §2, with “LPS (2 μg/mL),” for “TNF-α (20 nM),”
Next, the cell culture was recovered after cultivation, and the amounts of secretion of IL-17, IFN-γ, and TNF-α, which are secretion markers during Th17 differentiation, were measured using an ELISA kit (Quantikine ELISA Kit, R&D System, USA) specific to IL-17, IFN-γ, and TNF-α, and the absorbance was measured using Spectramax M2 (Molecular Devices).

[6] = tested on: secretion of IL-17 induced by TNF-α and IL-17A in splenocytes; experiment: ELISA of IL-17 secretion in splenocytes stimulated with TNF-α and IL-17A; settings: mouse splenocytes; peptide 5 μM and 50 μM; TNF-α 20 nM and IL-17A 200 ng/mL; 24 hours; FIG. 5
Experimental: In order to confirm the effect of the peptides of the present invention synthesized in Synthesis Example 1 on the inflammatory response induced by TNF-α and IL-17A, the secretion amount of IL-17, which is an inflammatory cytokine, was measured by ELISA.
(§3) Specifically, 6-7 week old mice were sacrificed to obtain spleens, which were crushed using a cell strainer, and then centrifuged with serum-free RPMI-1640 medium. The supernatant was discarded and red blood cells (RBCs) were removed twice using RBC lysis buffer. Then, after washing the resultant with serum-free RPMI-1640 medium, an appropriate amount of serum-free RPMI-1640 medium was added thereto. The number of mouse splenocytes was measured, and the cells were inoculated into a 24-well plate at a density of 1×10^7 cells/well, and cultured overnight. […]
Next, the cell culture was recovered after cultivation, and the amount of secretion of IL-17, which is an inflammatory cytokine, was measured using an ELISA kit (Quantikine ELISA Kit, R&D System, USA) specific to […], and the absorbance was measured using Spectramax M2 (Molecular Devices).

[7] = tested on: secretion of INFγ induced by LPS, TGF-β, and IL-23 in splenocytes; experiment: ELISA of INFγ secretion in splenocytes stimulated with LPS, TGF-β and IL-23; settings: mouse splenocytes; peptide 5 μM and 50 μM; LPS 2 μg/mL, TGF-β 20 ng/mL, IL-23 20 ng/mL; 24 hours; FIG. 4
Experimental: In order to confirm the effect of the peptides of the present invention synthesized in Synthesis Example 1 on the inflammatory response induced by LPS, TGF-β, and IL-23, the secretion amount of INFγ, which is an inflammatory cytokine, was measured by ELISA.
as §3, with “mice (C57BL/6, Young Bio Co., Ltd.)” for “mice”
Next, the cell culture was recovered after cultivation, and the amount of secretion of INFγ, which is an inflammatory cytokine, was measured using an ELISA kit (Quantikine ELISA Kit, R&D System, USA) specific to INFγ, and the absorbance was measured using Spectramax M2 (Molecular Devices).

SVSVGMKPSPRP [peptide of the present invention]
significantly reduce: mRNA expression of COX2 (RT-PCR) [1] | mRNA expression of IL-6 (RT-PCR) [1] | mRNA expression of IL-8 (RT-PCR) [1] | mRNA expression of TNF-α (RT-PCR) [1] | secretion of TNF-α (ELISA) ([2]; FIG. 3A) | secretion of IL-1β (ELISA) ([2]; FIG. 3B) | secretion of INFγ (ELISA) ([2]; FIG. 3C) | mRNA expression of COX2 (RT-PCR) [4] | mRNA expression of INFγ (RT-PCR) [4] | secretion of TNF-α (ELISA) ([5]; FIG. 2A) | secretion of IFN-γ (ELISA) ([5]; FIG. 2B) | secretion of IL-17 (ELISA) ([5]; FIG. 2C) | secretion of IL-17 (ELISA) [6] | secretion of INFγ (ELISA) [7]
reduce: iNOS protein expression (Western blot) [3] | phosphorylation of JNK (Western blot) [3]
